Measured values from paper PMC8836076, “A Fungal Versatile GH10 Endoxylanase and Its Glycosynthase Variant: Synthesis of Xylooligosaccharides and Glycosides of Bioactive Phenolic Compounds” (International Journal of Molecular Sciences, 2022).

Target: T1, rXynSOS (Talaromyces amestolkiae, UniProt A0A364LCP8, E255G)
T1 construct: gene BHQ10_009513; mature protein (389 aa, GH10 domain + C-terminal CBM1), 19-aa signal peptide removed, pPIC9 in Pichia pastoris GS115, no tag, starts QLNTAAK (from primer), glycosylated, 53 kDa monomer
T1 sequence (A0A364LCP8 entry or part of it E255G): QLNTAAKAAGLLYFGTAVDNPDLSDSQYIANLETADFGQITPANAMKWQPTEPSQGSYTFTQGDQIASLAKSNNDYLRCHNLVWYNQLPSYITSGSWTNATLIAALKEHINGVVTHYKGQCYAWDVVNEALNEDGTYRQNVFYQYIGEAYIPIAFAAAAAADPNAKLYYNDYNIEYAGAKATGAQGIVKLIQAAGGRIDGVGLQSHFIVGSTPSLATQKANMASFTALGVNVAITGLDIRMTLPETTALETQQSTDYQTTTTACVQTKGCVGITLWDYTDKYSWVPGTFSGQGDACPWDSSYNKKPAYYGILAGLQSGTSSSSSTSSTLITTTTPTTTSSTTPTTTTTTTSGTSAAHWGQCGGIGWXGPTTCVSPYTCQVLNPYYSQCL
Assay: ESI-MS and NMR of xylooligosaccharide synthesis
Assay type: biochemical
Details: glycosynthase; 20 mM X2F as only reactant (donor and acceptor), 50 mM sodium acetate pH 5, 25 °C, 16 h

## O[C@@H]1[C@@H](O)[C@H](O[C@@H]2CO[C@H](F)[C@H](O)[C@H]2O)OC[C@H]1O [X2F, xylobiose-fluoride]
  ESI-MS and NMR of xylooligosaccharide synthesis: reaction with X2F as the only reactant molecule (no acceptor was added)
